We go through one molecule from publication PMC6934184, “Selective DNA-PKcs inhibition extends the therapeutic index of localized radiotherapy and chemotherapy” (The Journal of Clinical Investigation, 2019).

The test addresses T1, DDR2 T654M (Homo sapiens, UniProt Q16832, T654M).
T1 construct: purchased Thermo Fisher Scientific (Life Technologies) SelectScreen
As to the kind of experiment: SelectScreen LanthaScreen. Format: binding. The settings on record: read-out: % displacement. Summed up:
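NU5455 was profiled across the SelectScreen Broad panel of kinase activity and binding assays. Z'LYTE reactions such as CSF1R ran at apparent Km ATP, while the Adapta CAMK1 assay used ATP listed as 10. Values are given as percent.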
On the technique in general: TR-FRET usually uses a lanthanide donor and a delayed reading to cut background.

T1 sequence (Q16832 22-855 T654M): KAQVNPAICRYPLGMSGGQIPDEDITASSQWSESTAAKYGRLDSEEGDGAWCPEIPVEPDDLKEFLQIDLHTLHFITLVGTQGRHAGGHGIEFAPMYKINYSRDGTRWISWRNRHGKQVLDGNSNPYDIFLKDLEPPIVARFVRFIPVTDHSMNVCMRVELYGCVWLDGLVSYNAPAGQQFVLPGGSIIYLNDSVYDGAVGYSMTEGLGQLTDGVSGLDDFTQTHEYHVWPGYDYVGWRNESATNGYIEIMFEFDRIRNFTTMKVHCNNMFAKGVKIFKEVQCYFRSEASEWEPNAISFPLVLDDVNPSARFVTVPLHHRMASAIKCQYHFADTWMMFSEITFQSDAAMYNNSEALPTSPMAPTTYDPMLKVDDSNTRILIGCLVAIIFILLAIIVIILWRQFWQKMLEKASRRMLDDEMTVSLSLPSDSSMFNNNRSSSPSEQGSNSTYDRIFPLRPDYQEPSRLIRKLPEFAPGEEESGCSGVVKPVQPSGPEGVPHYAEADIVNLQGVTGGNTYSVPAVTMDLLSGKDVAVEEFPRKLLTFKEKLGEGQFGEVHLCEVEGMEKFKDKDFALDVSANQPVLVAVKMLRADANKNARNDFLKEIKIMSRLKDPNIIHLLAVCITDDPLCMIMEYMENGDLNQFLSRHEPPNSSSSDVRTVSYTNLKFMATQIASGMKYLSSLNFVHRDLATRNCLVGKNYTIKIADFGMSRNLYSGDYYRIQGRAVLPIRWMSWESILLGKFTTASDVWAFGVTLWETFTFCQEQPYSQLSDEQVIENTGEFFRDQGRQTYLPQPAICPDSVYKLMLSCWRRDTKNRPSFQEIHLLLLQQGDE

Take `CN(C(=O)CN1CCOCC1)c1ccc2sc3c(-c4cccc5c(=O)cc(N6CC7CCC(C6)O7)oc45)cccc3c2c1` [NU5455]: the inhibition at 1 µM amounted to 2.5%.
